# Laboratory results published in patent US8114897B2, “Pesticidal composition and method for controlling a pest” (priority 2007, dated 2012).
# Experiments:
# [1] = tested on: cockroaches Blattella germanica; test: Referential Test Example: spray test on hidden cockroaches, mortality rate; assay type: in vivo; conditions: 4.2 mL test formulation solution (ingredient concentrations % (w/v) per Table 2, in diethylene glycol monomethylether) sprayed in 70 cm cubic glass box; 10 cockroaches; transferred after 10 minutes; counted after 3 days; average of duplicate
# Text: Suitable amounts of the compound A and either (E)-N^1-[(6-chloro-3-pyridyl)methyl]-N^2-cyano-N^1-methylacetamidine (general name: acetamiprid, hereinafter, referred to as N-cyanoacetamidine compound) or 1-(6-chloro-3-pyridylmethyl)-N-nitroimidazolidin-2-ylidene amine (general name: imidacloprid, hereinafter referred to as nitroimidazoline compound) are mixed with diethylene glycol monomethylether, to give test formulation solutions containing the compound A and either the N-cyano acetamidine or nitroimidazoline compound at particular concentrations (see Table 2).
# (§1) A triangular prism wooden container (regular triangle having a base of 3.5 cm and a height of 15 cm) containing 10 cockroaches Blattella germanica (5 males and 5 females) hidden therein was placed in the bottom center of a cubic glass box having a base of 70 cm. 4.2 Milliliters of the test formulation solution was sprayed on the glass box with a spray gun. In 10 minutes after the spraying, the cockroaches were transferred into a plastic container containing food and water and left there for 3 days. The number of live cockroaches was then counted, to give a mortality rate.
# [2] = tested on: cockroaches Blattella germanica; test: Test Example: spray test on hidden cockroaches, mortality rate; assay type: in vivo; conditions: 4.2 mL test formulation solution (ingredient concentrations % (W/V) per Table 1, in diethylene glycol monomethylether) sprayed in 70 cm cubic glass box; 10 cockroaches; transferred after 10 minutes; counted after 3 days; average of duplicate
# Text: Suitable amounts of 4-methoxymethyl-2,3,5,6-tetrafluorobenzyl(1R)-trans-3-(2-cyano-1-propenyl)-2,2-dimethylcyclopropanecarboxylate (isomer ratio, based on double bond, Z/E: approximately 2/1) (hereinafter, referred to as compound A) and/or clothianidin (manufactured by Sumika Takeda Agrochemicals Co.) are mixed with diethylene glycol monomethylether, to give a test formulation solution containing the compound A and/or clothianidin at particular concentrations (see Table 1).
# as §1, with “cm square.” for “cm.”
SMILES,Mortality rate (%) [1] [%],Mortality rate (%) [2] [%]
"O=[N+]([O-])NC1=NCCN1Cc1ccc(Cl)nc1 [compound 13, 1-(6-chloro-3-pyridylmethyl)-N-nitroimidazolidin-2-ylidene amine]",15,
"COCc1c(F)c(F)c(COC(=O)[C@@H]2[C@@H](C=C(C)C#N)C2(C)C)c(F)c1F [compound 7, 4-methoxymethyl-2,3,5,6-tetrafluorobenzyl(1R)-trans-3-(2-cyano-1-propenyl)-2,2-dimethylcyclopropanecarboxylate]",5,5
"C/C(=N\C#N)N(C)Cc1ccc(Cl)nc1 [compound 12, (E)-N^1-[(6-chloro-3-pyridyl)methyl]-N^2-cyano-N^1-methylacetamidine]",5,
"CN/C(=N\[N+](=O)[O-])NCc1cnc(Cl)s1 [compound 8, 1-(2-chloro-1,3-thiazolyl)methyl-3-methyl-2-nitroguanidine]",,35
